For 60 molecules, RP-LC retention time results are on record in the METLIN SMRT retention time set (Domingo-Almenara et al. 2019).

The data set in a line: gradient 5% acetonitrile 3 min, to 50% in 2 min, to 85% in 15 min, held 3 min, 100 µL/min. The following applies: column: Zorbax Extend-C18 2.1 x 50 mm; eluents: water / acetonitrile, 0.1% formic acid. In outline:
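A Zorbax Extend-C18 column (2.1 × 50 mm, 1.8 μm) run at 100 μL/min with water and acetonitrile, both containing 0.1% formic acid, separated mixtures of ~100 pure standards. The HPLC was coupled to a quadrupole time-of-flight mass spectrometer operated in positive and negative ionization mode, with dead and dwell volumes of 40 μL and 900 μL. Each retention time was taken from a computationally picked adduct peak that was then manually inspected.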
Molecule `N#Cc1cccc(C(=O)N2CCCn3nc(-c4ccc(Cl)cc4)cc3C2)c1` had an RP-LC retention time of 933 s.
Then `O=C(NCc1cc(F)cc(F)c1)C1CCN(c2ccc(SCc3ccccc3)nn2)CC1`, with 791 s; and `Cc1nc2nc(-c3ccc(Cl)cc3)nn2c(C)c1CC(=O)NC(C)C`, with 790 s.
The same measure for `CCSC1=NCCN1C(=O)C(C)(C)Oc1ccc(Cl)cc1`: 770 s; for `NS(=O)(=O)c1ccc(CCNCc2ccc(-c3cccc(Cl)c3)o2)cc1`: 675 s; for `COc1nn(C)cc1C(=O)N1CCC(C(=O)NCc2cccs2)CC1`: 613 s.
The same measure for `CCCn1c(=O)c(C)nc2cc(-c3noc(CNS(=O)(=O)c4ccccc4)n3)ccc21`: 853 s; for `COc1ccc(NC2=NCCO2)c2c1CCCC2`: 640 s.
Consider `O=C(Nc1ccc(F)cc1)N1CCCC1c1nc(-c2ccc(F)cc2F)no1` (stereo not given), for which the RP-LC retention time worked out at 934 s.
On to `CC(C)COc1cc(=O)n2c(c1C(=O)NC1CCN(C)CC1)CCCCC2`, for which the RP-LC retention time was determined as 571 s.
Then `O=C(Cc1csc2nc(-c3cccc(Cl)c3)cn12)Nc1ccc(F)cc1F`, with 942 s; and `CCOC(=O)c1c(S(=O)(=O)N2CCC(C(=O)NCc3ccccc3Cl)CC2)c(C)n(C)c1C`, with 862 s; and `O=C(NCc1nc(-c2ccccc2)no1)c1csc(-n2cccc2)n1`, with 894 s.
On to `Cc1ccc(N2CN(CCC(C)C)S(=O)(=O)c3cccnc32)cc1`, for which the RP-LC retention time is 1150 s.
Then `COc1ccc(S(=O)(=O)NCC2CCN(Cc3cc(C)oc3C)CC2)cc1Cl`, with 660 s; and `COc1ccc(-c2ccc(=O)n(CCCNC(=O)c3ccc(S(N)(=O)=O)cc3)n2)cc1`, with 812 s.
Then `CCN1C(=O)CCc2cc(NC(=O)COc3ccc(F)cc3)ccc21`, with 801 s.
The same measure for `COc1ccc(CNC(=O)C2CCN(c3ccc(SCc4ccccc4)nn3)CC2)c(OC)c1`: 767 s.
Turning to `CC(C)(C)c1csc(-c2csc(S(=O)(=O)N3CCCCCC3)c2)n1`, the RP-LC retention time is 1340 s.
With `Cc1ccc(-c2nc(-c3ccc4c(c3)nc(C)c(=O)n4C)no2)cc1`, the RP-LC retention time worked out at 1090 s.
For the molecule `Cc1oc(-c2[nH]ncc2C(=O)N2CCCC2)cc1S(=O)(=O)NCCCOC(C)C`, the RP-LC retention time amounted to 655 s.
Then `CCOc1ccc(-c2cc(=O)n(CC(=O)NCCn3ncccc3=O)cn2)cc1`, with 614 s; and `O=S(=O)(c1ccc(-c2cnc(C3CCC3)o2)s1)N1CCN(c2ncccn2)CC1`, with 1040 s; and `CC(NC(=O)CN1CN(c2ccccc2)C2(CCN(C(=O)CC(C)(C)C)CC2)C1=O)c1ccccc1` (stereo not given), with 931 s.
The same measure for `O=C(CN1CCN(Cc2ccc(F)cc2)C(=O)C1=O)N1CCN(c2cccc(Cl)c2)CC1`: 829 s; for `COc1ccc(N2CC(c3nc(-c4ccccc4)no3)CC2=O)cc1OC` (stereo not given): 669 s; for `O=C(c1ncccn1)N1C[C@@H](COCC2CC2)[C@H](c2ccncc2)C1`: 654 s.
Then `CN1c2ccc(Cl)cc2C(=O)NC12CCN(C(=O)c1cccc(F)c1)CC2`, with 808 s.
`Cc1ccccc1NC(=O)Cn1nc2n(c1=O)CCCC2` yielded an RP-LC retention time of 630 s.
Then `O=C1COc2ccc(S(=O)(=O)N3CCCC3C(=O)Nc3cccc(Cl)c3)cc2N1` (stereo not given), with 835 s; and `CCOC(=O)C1=C(N)Oc2cc(C)n(CCN(C)C)c(=O)c2C1c1ccccc1F` (stereo not given), with 648 s.
The same measure for `Cc1nc(-c2cc(S(=O)(=O)NCC(=O)N3CCN(c4cccc(Cl)c4)CC3)c(C)s2)no1`: 829 s; for `Cc1onc(-c2c(F)cccc2Cl)c1C(=O)N1CCOCC1`: 727 s.
Take `O=C(CSc1ccc(N2CCCC(C(=O)NC3CC3)C2)nn1)Nc1ccccc1Br` (stereo not given): the RP-LC retention time was 664 s.
`COc1ccc(C2(C(=O)Nc3cc(-c4ccsc4)no3)CC2)cc1` gave an RP-LC retention time of 1030 s.
The same measure for `Cn1c(=O)c(C(=O)N2CCCC2)nc2ccccc21`: 622 s.
Then `O=C(c1ccc(-c2ccc(N3CCCCC3)nc2)cc1)N1CCOCC1`, with 607 s; and `CCOC(=O)N1CCN(Cc2nc(-c3ccc(N4CCCC(C)C4)nc3)no2)CC1` (stereo not given), with 855 s.
The same measure for `N#Cc1cccc(CN2CCCC(c3nc(-c4ccncc4)n[nH]3)C2)c1` (stereo not given): 494 s; for `CCNC(=O)Cn1c(=O)c2cnc(-c3ccccc3)nc2n(CC)c1=O`: 802 s.
As for `CSCC[C@H](NC(=O)C(C)Oc1cc(C)cc2oc(=O)c3c(c12)CCCC3)C(=O)O` (stereo not given in full), the RP-LC retention time is 860 s.
`O=C(Cn1cnc2ccccc21)N1CCC(COCc2ccccc2)CC1` returned an RP-LC retention time of 608 s.
The same measure for `O=C(CCc1nnn2c1CN(C(=O)c1ccccc1F)CC2)NC1CC1`: 615 s; for `COc1cccc(-c2nc(-c3ccc4oc(C)nc4c3)no2)c1OC`: 1020 s.
The same measure for `CC(C)(CO)NC(=O)Cc1ccc(NC(=O)C2(c3ccc(F)cc3)CC2)cc1`: 734 s.
`COc1ccc(NC(=O)N2CCC3(CC2)NC(=O)c2cc(Cl)ccc2N3C)cc1OC` came in with an RP-LC retention time of 722 s.
Then `COc1ccc(CC(=O)Nc2ccc(-c3nc(Cn4cc(C)cn4)c(C)o3)cc2)cc1`, with 889 s; and `COCc1nc(C2CCN(S(=O)(=O)c3ccc4c(c3)CCC4)C2)no1` (stereo not given), with 928 s; and `C=C(C)CSc1nnc(-c2ccc(OC)cc2)o1`, with 1030 s.
Molecule `CCS(=O)(=O)N1C[C@@H](COC)[C@H](c2ccncc2)C1` had an RP-LC retention time of 544 s.
`COCc1cc(=O)n(CC(=O)Nc2ccc(F)c(Cl)c2)c(N2CCOCC2)n1` came in with an RP-LC retention time of 917 s.
In turn, `C=Cc1ccc(Cn2cc(S(=O)(=O)N3CCCCCC3)ccc2=O)cc1` came in with an RP-LC retention time of 1020 s.
On to `CC(=O)c1cccc(NC(=O)c2csc3c2CCCC3)c1`, for which the RP-LC retention time came out at 996 s.
Then `O=C(NC1CC1)c1ccc2c(c1)CCN2C(=O)C1CCCC1`, with 948 s; and `Cn1nc(COc2ccccc2)c2c1CCN(C(=O)c1ccccn1)C2`, with 687 s.
Then `CCc1ccc(S(=O)(=O)N2CC(F)(F)C[C@H]2c2nnc(C)o2)cc1`, with 858 s.
Then `O=C(CN1C(=O)CCc2cc(Br)ccc21)NCc1ccccc1`, with 784 s; and `COc1ccc(NC(=O)C2CC(=O)N(c3ccc4c(c3)CCN4C(=O)C3CC3)C2)c(C)c1` (stereo not given), with 740 s.
`N#Cc1ccccc1NC(=O)c1ccc(N2C(=O)CCC2=O)cc1` yielded an RP-LC retention time of 639 s.
The same measure for `O=C(NCc1cccc(F)c1)C1CCN(c2cncnc2N2CCOCC2)CC1`: 614 s.
